These results are taken from paper PMC12410356 (International Journal for Parasitology: Drugs and Drug …, 2025).

Data set [1] has as its system E. multilocularis metacestode vesicles. The data set can be described thus: Metacestode vesicle viability assay (ATP, CellTiter-Glo). The data set is classed as cell-based, Echinococcus multilocularis. Here is the method:
Viability was assessed after 12 days using the same metacestode vesicles as for the PGI release assay. Triton X-100 was added to each well to a final concentration of 0.1 %. Subsequently the metacestode vesicles were broken mechanically and 50 μL of the supernatant was mixed with 50 μL of CellTiter-Glo® buffer (Promega, Dübendorf, Switzerland). Measurements were performed on a HIDEX Sense microplate reader.

Data set [2] has the same test system. Briefly: Phosphoglucose isomerase (PGI) release assay (damage-marker release) on metacestode vesicles. To be noted: 10 μM; for PGI d5 (relative PGI release): 5 days; for PGI d12 (relative PGI release): 12 days. The data set is classed as cell-based, Echinococcus multilocularis.
Where [3] appears, read: overview screen, 10 μM, singlets, 12 days, relative to DMSO control.
Where [4] appears, read: overview screen, singlets, relative to 0.1 % Triton X-100, DMSO subtracted.
Setting [5] is: confirmation screen, triplicates, mean.

Turning to `Cc1c(OCC(F)(F)F)ccnc1C[S+]([O-])c1nc2ccccc2[nH]1` (stereo not drawn) [MMV001438], in data set [1] (setting [3]), the “Viability d12 (relative viability)” value is on record as 96.7343%. Also, in data set [2] (setting [4]), the “PGI d5 (relative PGI release)” value was 1.578% and the “PGI d12 (relative PGI release)” value is recorded as -2.884%.
Take `O=C(NC1CCCc2c1[nH]c1ccc(Cl)cc21)c1ccccn1` (stereo not drawn) [MMV690621]: the “Viability d12 (relative viability)” value in data set [1] (10 µM) stood at 144.507%. For the same compound, in data set [2] (setting [4]), the “PGI d5 (relative PGI release)” value stood at 0.1463% and the “PGI d12 (relative PGI release)” value is -17.1395%.
`O=C(O)/C=C/C=C/c1cccc(Oc2cc(Cl)cc(Cl)c2)c1` [MMV1633963]: the “Viability d12 (relative viability)” value in data set [1] (setting [3]) is reported as 136.634%. In addition, in data set [2] (setting [4]), the “PGI d5 (relative PGI release)” value was 0.04404% and the “PGI d12 (relative PGI release)” value is 0.4233%.
On the same counts, the results for `COc1ccccc1CN[C@H]1C2CCN(CC2)[C@H]1C(c1ccccc1)c1ccccc1` [MMV690480] are 61.0456%, -0.6012% and -18.8913%.
Taken in the same sequence, the figures for `Cl.Nc1nc(-c2ccccc2)nc2c1ncn2[C@@H]1O[C@H](COS(=O)(=O)NC(=O)c2ccccc2O)[C@@H](O)[C@H]1O` [MMV1582488] were 117.234%, -1.401% and 11.4821%.
Taken in the same sequence, the figures for `c1ccc(-c2nnc3c4ccccc4c(N4CCNCC4)nn23)cc1` [MMV1581551] were 63.6248%, -2.787% and -25.7664%.
In the case of `O=C(CC1Sc2ncnn2C1=O)Nc1ccc(Br)cc1` (stereo not drawn) [MMV214956], in data set [1] (setting [3]), the “Viability d12 (relative viability)” value turned out to be 47.1606%. In data set [2] (setting [4]), the “PGI d5 (relative PGI release)” value is on record as -1.614% and the “PGI d12 (relative PGI release)” value was -20.0728%.
`C[C@H](c1cccc2ccccc12)N(C)Cc1ccccc1` [MMV1782221]: the “Viability d12 (relative viability)” value in data set [1] (setting [3]) is given as 45.2554%. Also, in data set [2] (setting [4]), the “PGI d5 (relative PGI release)” value is recorded as 2% and the “PGI d12 (relative PGI release)” value was -21.1471%.
On the same counts, the results for `N[C@H]1CCC[C@H]1C(=O)O` [MMV1634361] are 78.6856%, 0.2611% and 0.2526%.
Consider `CN(C)CCCOc1ccc(-c2ccc3ncc4c(c3c2)n(C2CCOCC2)c(=O)n4C)cn1` [MMV1580483], for which the “Viability d12 (relative viability)” value in data set [1] (10 µM) amounted to 49.6824%. Further, in data set [2] (setting [4]), the “PGI d5 (relative PGI release)” value is -0.0428% and the “PGI d12 (relative PGI release)” value came to 2.3899%.
As for `O=C(CP(=O)(O)O)NCCc1cccc(Oc2ccccc2)c1` [MMV1579787], in data set [1] (setting [3]), the “Viability d12 (relative viability)” value worked out at 61.3703%. For the same compound, in data set [2] (setting [4]), the “PGI d5 (relative PGI release)” value is -1.804% and the “PGI d12 (relative PGI release)” value is listed as -11.6628%.
Taken in the same sequence, the figures for `N[C@@H]1CN(c2c(F)cc3c(=O)c(C(=O)O)cn([C@@H]4C[C@@H]4F)c3c2Cl)CC12CC2` [MMV1579850] were 103.25%, -2.37% and -5.627%.
Taken in the same sequence, the figures for `CC(=O)Nc1cc(NS(=O)(=O)c2ccc(Cl)cc2)cc2c(Cl)n[nH]c12` [MMV1579779] were 88.2086%, 1.247% and 30.3469%.
Turning to `O=[N+]([O-])c1ccc2c(CCc3c[nH]c4ccccc34)c[nH]c2c1` [MMV1593539], in data set [1] (setting [3]), the “Viability d12 (relative viability)” value was found to be 72.058%. Besides, in data set [2] (setting [4]), the “PGI d5 (relative PGI release)” value came to 1.886% and the “PGI d12 (relative PGI release)” value stood at 90.6206%.
Taken in the same sequence, the figures for `CCOc1ccc(C(=O)NCCc2ccccc2)cc1` [MMV124656] were 194.706%, -0.3368% and 10.9951%.
Taken in the same sequence, the figures for `O=C(Cn1cnc2ccccc2c1=O)Nc1ccccc1` [MMV1578891] were 139.913%, -0.325% and -3.282%.
On the same counts, the results for `Nc1nc2c(ncn2/C=C2/CC2(CO)CO)c(=O)[nH]1` [MMV1782210] are 144.056%, 0.1371% and -1.147%.
`Nc1nc2c(Cc3cccnc3)c[nH]c2c(=O)[nH]1` [MMV1782355]: in data set [1] (setting [3]), the “Viability d12 (relative viability)” value is 81.2481%. Further, in data set [2] (setting [4]), the “PGI d5 (relative PGI release)” value is -0.9111% and the “PGI d12 (relative PGI release)” value was 0.236%.
For `CC(C)(C)c1cc(CCC(=O)N2CCC2)cc(C(C)(C)C)c1O` [MMV1229204], in data set [1] (setting [3]), the “Viability d12 (relative viability)” value worked out at 39.6611%. For the same compound, in data set [2] (setting [4]), the “PGI d5 (relative PGI release)” value is recorded as -1.987% and the “PGI d12 (relative PGI release)” value is listed as -10.8726%.
Taken in the same sequence, the figures for `CC1(C)CC(NC(=O)C(=O)Nc2ccc(Cl)cc2)CC(C)(C)N1` [MMV1580501] were 102.317%, 0.3852% and 0.4399%.
In the case of `Nc1ccc(-c2nc3cc(C(F)(F)F)ccc3n2C23CC4CC(CC(C4)C2)C3)cc1` [MMV1634385], the “Viability d12 (relative viability)” value in data set [1] (setting [3]) was 100.869%. For the same compound, in data set [2] (setting [4]), the “PGI d5 (relative PGI release)” value stood at 1.378% and the “PGI d12 (relative PGI release)” value came to 1.206%.
As for `Fc1ccc2c(/C=C/c3nnn[nH]3)c[nH]c2c1` [MMV1578563], the “Viability d12 (relative viability)” value in data set [1] (setting [3]) is on record as 20.2898%. For the same compound, in data set [2] (setting [4]), the “PGI d5 (relative PGI release)” value is reported as -0.5513% and the “PGI d12 (relative PGI release)” value is on record as -11.8723%.
Taken in the same sequence, the figures for `C[C@@H](O)[C@H](N)C(=O)NS(=O)(=O)c1cccc(-c2ccc3[nH]ncc3c2)c1.Cl.Cl` [MMV1582494] were 90.2603%, -2.197% and -25.2892%.
On the same counts, the results for `NC(=O)C(c1ccccc1)(c1ccccc1)[C@H]1CCCN(CCc2ccc3c(c2)CCO3)C1` [MMV1782412] are 220.792%, 1.533% and 2.087%.
On the same counts, the results for `C[C@H](Cn1cnc2c(N)ncnc21)OCP(=O)(O)O` [MMV1580478] are 132.93%, 0.0562% and -19.3802%.
As for `NC(=O)c1c(N)sc2c1CCCCC2` [MMV056052], in data set [1] (setting [3]), the “Viability d12 (relative viability)” value amounted to 78.9817%. Also, in data set [2] (setting [4]), the “PGI d5 (relative PGI release)” value was determined as 0.2417% and the “PGI d12 (relative PGI release)” value turned out to be 3.2439%.
Consider `Clc1ccc(Cn2c(CN3CCCC3)nc3ccccc32)cc1` [MMV002015], for which the “Viability d12 (relative viability)” value in data set [1] (10 µM) was determined as 85.4319%. Moreover, in data set [2] (setting [4]), the “PGI d5 (relative PGI release)” value is listed as -0.9034% and the “PGI d12 (relative PGI release)” value is listed as -18.1648%.
Turning to `CO[C@@]1(NC(=O)Cc2cccs2)C(=O)N2C(C(=O)O)=C(COC(N)=O)CS[C@@H]21` [MMV1578559], in data set [1] (setting [3]), the “Viability d12 (relative viability)” value stood at 75.9823%. Further, in data set [2] (setting [4]), the “PGI d5 (relative PGI release)” value is -1.349% and the “PGI d12 (relative PGI release)” value is recorded as -7.289%.
With `Cc1c(N)cccc1Cn1ccc(OCCc2cccs2)cc1=O` [MMV1578557], the “Viability d12 (relative viability)” value in data set [1] (setting [3]) stood at 70.6385%. Further, in data set [2] (setting [4]), the “PGI d5 (relative PGI release)” value was -0.9531% and the “PGI d12 (relative PGI release)” value was -14.0356%.
On to `NC(=O)c1[nH]c2ccc(S(N)(=O)=O)cc2c1-c1ccccc1` [MMV1581556], for which, in data set [1] (setting [3]), the “Viability d12 (relative viability)” value was found to be 154.578%. Moreover, in data set [2] (setting [4]), the “PGI d5 (relative PGI release)” value came out at 1.2% and the “PGI d12 (relative PGI release)” value turned out to be 0.8963%.
`Cc1ccccc1NC(=O)Nc1cccc([N+](=O)[O-])c1` [MMV1581029]: the “Viability d12 (relative viability)” value in data set [1] (setting [3]) was 89.4166%. Besides, in data set [2] (setting [4]), the “PGI d5 (relative PGI release)” value is reported as 1.329% and the “PGI d12 (relative PGI release)” value is listed as -16.6439%.
On the same counts, the results for `CCOc1noc2cc(OCCC3CCN(c4ccc(C)nn4)CC3)ccc12` [MMV1634071] are 88.166%, 0.1516% and -20.1339%.
On the same counts, the results for `O=C(Nc1ccc(N2CCN(C(=O)c3ccccc3)CC2)cc1)c1ccc2c(c1)OCO2` [MMV1580505] are 160.891%, -0.142% and -0.2928%.
As for `O=C(c1ccc(F)cc1)N1CCN2C(=O)c3ccccc3C12c1ccccc1` (stereo not drawn) [MMV1165877], the “Viability d12 (relative viability)” value in data set [1] (confirmation screen, 10 μM, triplicates, mean, 12 days) amounted to 130.42%; in data set [1] (setting [3]), 23.1723%. For the same compound, the “PGI d5 (relative PGI release)” value in data set [2] (setting [5]) is 0.55%; in data set [2] (setting [4]) it was 6.429%. Further, the “PGI d12 (relative PGI release)” value in data set [2] (setting [5]) is recorded as 0.41%; in data set [2] (setting [4]), 52.7291%.
Turning to `c1cc(CN2CCCNCCNCCCNCC2)ccc1CN1CCCNCCNCCCNCC1` [MMV1580502], the “Viability d12 (relative viability)” value in data set [1] (setting [3]) is 124.773%. Moreover, in data set [2] (setting [4]), the “PGI d5 (relative PGI release)” value is -0.2909% and the “PGI d12 (relative PGI release)” value came out at 2.621%.
Taken in the same sequence, the figures for `OC1O[C@H](CSc2ccc(F)cc2)[C@@H](O)[C@H]1O` (stereo partly drawn) [MMV1581550] were 95.5206%, -2.303% and -13.5328%.
For `CC1CCc2c(N3CCC(O)CC3)c(F)cc3c(=O)c(C(=O)O)cn1c23` (stereo not drawn) [MMV637659], the “Viability d12 (relative viability)” value in data set [1] (10 µM) is reported as 137.188%. Moreover, in data set [2] (setting [4]), the “PGI d5 (relative PGI release)” value was -2.748% and the “PGI d12 (relative PGI release)” value was -5.473%.
Regarding `O=C(NCCN1CCCCC1)c1cccc(C(F)(F)F)c1` [MMV1633964], the “Viability d12 (relative viability)” value in data set [1] (setting [3]) amounted to 94.8358%. For the same compound, in data set [2] (setting [4]), the “PGI d5 (relative PGI release)” value came to 0.4856% and the “PGI d12 (relative PGI release)” value is listed as -18.3006%.
